≈ marks a conversion by molar mass, not a printed value.

A short description of one series: physchem. It is filed as physicochemical. As to the method:
A chemical molecule (compound B) is presented with a low molecular weight. […] The solubility is increased up to 8 mg/ml in PEG200.
A calpain inhibitor (PD 150606) is presented, having a low molecular weight of 306 Da. […] The solubility is increased up to 8 mg/ml in PEG200.

A short description of series [1]: Active loading of pre-formed liposomes (encapsulation efficiency, final product). It is filed as physicochemical. The conditions noted are these: solubilized in pure PEG200 and HPβCD; same pre-formed liposomes (calcium acetate). As to the method:
Liposomes may consist of different phospholipids and cholesterol in several molar ratios in order to modify the transition/processing temperature and particle stability in plasma. […] Components are dissolved in ethanol or iso-propanol. Additionally, for the purpose of increasing the (in vivo) particle stability and enhanced brain delivery, micelles consisting of DSPE-PEG-GSH (up to 5 mol %), which is synthesized before preparation of the liposomes using DSPE-PEG-MAL and fresh solutions of reduced glutathione, and/or DSPE-mPEG (Mw 2000) may be added to the solution at different mol-percentages (up to 5-10 mol % in total). The (lipid) mixture is injected in aqueous solutions containing active loading buffer of different ionic strengths (1-1000 mM), e.g. 2 mg/mL ammonium sulfate or 1 mg/mL calcium acetate. After stirring, the formed vesicles are either extruded through membranes or homogenized in an emulsifier to create liposomes of a uniform size. Alternatively, DSPE-PEG-GSH or DSPE-mPEG is added after preparation of the liposomes by incubation at 25° C. up to 60° C. for 2 up to 24 hours (depending on the phase transition temperature of the lipid mixture and the temperature sensitivity of the agent). […]
The compound is measured with UV at 295 nm at concentrations between 5-60 μg/ml. […]

Where [2] appears, read: pH 7, aqueous with cosolvent or surfactant or cyclodextrin.

As for `C[C@@H](Oc1cc(-c2cnn(C3CCNCC3)c2)cnc1N)c1c(Cl)ccc(F)c1Cl` [Crizotinib], the solubility in “physchem” (20 °C) is < 100 µg/mL; in “physchem” (aqueous with cosolvent or surfactant or cyclodextrin) it was 2200 µg/mL (≈ 4890 µM); in “physchem” (setting [2]), ≥ 5000 µg/mL.
On to `O=C(O)/C(S)=C/c1ccc(I)cc1` [PD 150606], for which the “active loading into pre-formed liposomes” value in series [1] is reported as “no active loading”. In addition, in the series “physchem”, the “solubility in PEG200” value is given as “up to 8 mg/ml”, the solubility in water entry is reported as “below 0.05 mg/ml” and the “stability at basic pH” value was “decomposes”.
Turning to `O=C(O)c1cccnc1C(=O)O` [quinolinic acid], the solubility in “physchem” (pH 5, aqueous buffer) was 3 µg/mL (≈ 18 µM); in the series “physchem” (pH 6, aqueous buffer), 20 µg/mL (≈ 120 µM); in the series “physchem” (pH 7, aqueous buffer), 350 µg/mL (≈ 2090 µM); in the series “physchem” (setting [2]) it was ≤ 2200 µg/mL; in “physchem” (pH 8, aqueous buffer) it was 900 µg/mL (≈ 5390 µM).

These data come from patent US20130337051A1, “ADVANCED ACTIVE LIPOSOMAL LOADING OF POORLY WATER-SOLUBLE SUBSTANCES” (priority 2011, published 2013).
